Data from patent US20200060276A1, “THIAZOLE COMPOUND AND HERBICIDE” (OAT Agrio Co., Ltd., priority 2017, published 2020).

Tests used:
Format in all cases: in vivo
[1] = test system: Echinochloa crus-galli (L.) P. Beauv. var. formosensis Ohwi; experiment: Test for Herbicidal Effect in Flooding Treatment (#2), ECHDG at 2-2.5 leaf stage; conditions: for ECHDG (2-2.5L) #2 herbicidal effect (growth inhibition grade): flooding treatment at 2-2.5 leaf stage, dose 0.2 kg/ha, visual observation on day 21; for inhibition at 200 g/ha: Echinochloa crus-galli, 504 h, flooding treatment (#2), ECHDG at 2-2.5 leaf stage, dose of 0.2 kg/ha, day 21, visual observation, read-out: growth inhibition effect
Method in brief: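 Scoring is a visual 0–5 scale of growth inhibition (0 below 10%, 5 at 90% or more or full withering), taken 21 days after treatment in a glasshouse. Dose was 0.2 kg/ha, applied as acetone/Tween 80 aqueous solution onto flooded soil once seedlings reached the 2–2.5 leaf stage.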

Scirpus juncoides = experiment: Test for Herbicidal Effect in Flooding Treatment (#1), SCIJU; conditions: flooding treatment at seeding, dose 2 kg/ha, visual observation on day 21
Method in brief: (§1)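 Flooded soil in cups was seeded 24 h after flooding, then treated with compound in acetone diluted with Tween 80-containing water, dropped onto the water surface at 2 kg/ha. After growth in a glasshouse, growth inhibition was scored visually on day 21 on a 0 (<10%) to 5 (≥90% or complete withering) scale.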

Cyperus microiria = experiment: Test for Herbicidal Effect in Flooding Treatment (#1), CYMIC; conditions: flooding treatment at seeding, dose 2 kg/ha, visual observation on day 21
Description: (#1) Test for Herbicidal Effect in Flooding Treatment: Styrol cups each having an opening diameter of 8 cm (about 52 cm^2) were respectively filled with soil (45 ml) which had been passed through a sieve (2 mm). Water (about 115 ml) was mixed with the soil such that the soil was flooded. After the soil stood still for 24 hours, Monochoria vaginalis, Echinochloa crus-galli (L.) P. Beauv. var. formosensis Ohwi, Cyperus difformis (umbrella sedge), and Scirpus juncoides were seeded. Each of the compounds of the present invention was dissolved in acetone, and the obtained product was then diluted with water containing Tween 80®. Each of the resultant chemical solutions was dropped on the entire surface of an associated one of treatment sections, so that each section was treated with 1 ml of the respective chemical solution (a dose of 2 kg/ha). After the treatment, the plants were grown in a glasshouse. On day 21, a survey was conducted on the herbicidal activity by visual observation, and evaluation was made according to the following criteria. 0: Growth inhibition effect is less than 10%. 1: Growth inhibition effect is equal to or greater than 10%, and less than 30%. 2; Growth inhibition effect is equal to or greater than 30%, and less than 50%. 3: Growth inhibition effect equal to or greater than 50%, and less than 70%. 4: Growth inhibition effect is equal to or greater than 70%, and less than 90%. 5: Growth inhibition effect is equal to or greater than 90%, or complete withering is achieved. ECHDG=Echinochloa crus-galli (L.) P. Beauv. var. formosensis Ohwi, MONVA=Monochoria vaginalis, SCIJU=Scirpus juncoides, CYMIC=Cyperus microiria.

[2] = test system: Echinochloa crus-galli (L.) P. Beauv. var. formosensis Ohwi; experiment: Test for Herbicidal Effect in Flooding Treatment (#1), ECHDG; conditions: flooding treatment at seeding, dose 2 kg/ha, visual observation on day 21
Method in brief: as §1

Compound	ECHDG (2-2.5L) #2 herbicidal effect (growth inhibition grade) [1]	SCIJU #1 herbicidal effect (growth inhibition grade) (Scirpus juncoides)	CYMIC #1 herbicidal effect (growth inhibition grade) (Cyperus microiria)	ECHDG #1 herbicidal effect (growth inhibition grade) [2]	inhibition at 200 g/ha [1]
COc1cccc(CS(=O)(=O)c2ncc(Cl)s2)c1OC [Compound 1C-124]	4 (Growth inhibition effect is equal to or greater than 70%, and less than 90%)	5 (Growth inhibition effect is equal to or greater than 90%, or complete withering is achieved)	5 (Growth inhibition effect is equal to or greater than 90%, or complete withering is achieved)	5 (Growth inhibition effect is equal to or greater than 90%, or complete withering is achieved)	–
CCOc1ccc(CS(=O)(=O)c2ncc(Cl)s2)cc1F [Compound 1C-95]	3 (Growth inhibition effect equal to or greater than 50%, and less than 70%)	5 (Growth inhibition effect is equal to or greater than 90%, or complete withering is achieved)	5 (Growth inhibition effect is equal to or greater than 90%, or complete withering is achieved)	5 (Growth inhibition effect is equal to or greater than 90%, or complete withering is achieved)	–
CCOc1c(Br)cc(Cl)cc1CS(=O)(=O)c1ncc(Cl)s1 [Compound 1C-24]	5 (Growth inhibition effect is equal to or greater than 90%, or complete withering is achieved)	5 (Growth inhibition effect is equal to or greater than 90%, or complete withering is achieved)	5 (Growth inhibition effect is equal to or greater than 90%, or complete withering is achieved)	5 (Growth inhibition effect is equal to or greater than 90%, or complete withering is achieved)	–
O=S(=O)(Cc1ccc(OC(F)(F)F)cc1)c1ncc(Cl)s1 [Compound 1C-115]	1 (Growth inhibition effect is equal to or greater than 10%, and less than 30%)	5 (Growth inhibition effect is equal to or greater than 90%, or complete withering is achieved)	5 (Growth inhibition effect is equal to or greater than 90%, or complete withering is achieved)	5 (Growth inhibition effect is equal to or greater than 90%, or complete withering is achieved)	–
CCOc1cccc(Cl)c1CS(=O)(=O)c1ncc(Cl)s1 [Compound 1C-20]	5 (Growth inhibition effect is equal to or greater than 90%, or complete withering is achieved)	5 (Growth inhibition effect is equal to or greater than 90%, or complete withering is achieved)	5 (Growth inhibition effect is equal to or greater than 90%, or complete withering is achieved)	5 (Growth inhibition effect is equal to or greater than 90%, or complete withering is achieved)	≥ 90%
CCOc1ccc(Cl)cc1CS(=O)(=O)c1ncc(Cl)s1 [Compound 1C-16]	5 (Growth inhibition effect is equal to or greater than 90%, or complete withering is achieved)	5 (Growth inhibition effect is equal to or greater than 90%, or complete withering is achieved)	5 (Growth inhibition effect is equal to or greater than 90%, or complete withering is achieved)	5 (Growth inhibition effect is equal to or greater than 90%, or complete withering is achieved)	≥ 90%
N#Cc1cccc(CS(=O)(=O)c2ncc(Cl)s2)c1 [Compound 1C-171]	3 (Growth inhibition effect equal to or greater than 50%, and less than 70%)	5 (Growth inhibition effect is equal to or greater than 90%, or complete withering is achieved)	5 (Growth inhibition effect is equal to or greater than 90%, or complete withering is achieved)	5 (Growth inhibition effect is equal to or greater than 90%, or complete withering is achieved)	–
CCOc1cc(C(F)(F)F)ccc1CS(=O)(=O)c1ncc(Cl)s1 [Compound 1C-14]	4 (Growth inhibition effect is equal to or greater than 70%, and less than 90%)	5 (Growth inhibition effect is equal to or greater than 90%, or complete withering is achieved)	5 (Growth inhibition effect is equal to or greater than 90%, or complete withering is achieved)	5 (Growth inhibition effect is equal to or greater than 90%, or complete withering is achieved)	–
COc1cc(F)c(CS(=O)(=O)c2ncc(Cl)s2)c(F)c1 [Compound 1C-90]	5 (Growth inhibition effect is equal to or greater than 90%, or complete withering is achieved)	5 (Growth inhibition effect is equal to or greater than 90%, or complete withering is achieved)	5 (Growth inhibition effect is equal to or greater than 90%, or complete withering is achieved)	5 (Growth inhibition effect is equal to or greater than 90%, or complete withering is achieved)	–
COc1cc(CS(=O)(=O)c2ncc(Cl)s2)cc(OC)c1OC [Compound 1C-128]	1 (Growth inhibition effect is equal to or greater than 10%, and less than 30%)	4 (Growth inhibition effect is equal to or greater than 70%, and less than 90%)	5 (Growth inhibition effect is equal to or greater than 90%, or complete withering is achieved)	5 (Growth inhibition effect is equal to or greater than 90%, or complete withering is achieved)	–
CCCCOc1cc(Cl)c(CS(=O)(=O)c2ncc(Cl)s2)c(Cl)c1 [Compound 1C-113]	5 (Growth inhibition effect is equal to or greater than 90%, or complete withering is achieved)	5 (Growth inhibition effect is equal to or greater than 90%, or complete withering is achieved)	5 (Growth inhibition effect is equal to or greater than 90%, or complete withering is achieved)	5 (Growth inhibition effect is equal to or greater than 90%, or complete withering is achieved)	–
CCOc1ccc(Br)cc1CS(=O)(=O)c1ncc(Cl)s1 [Compound 1C-17]	5 (Growth inhibition effect is equal to or greater than 90%, or complete withering is achieved)	5 (Growth inhibition effect is equal to or greater than 90%, or complete withering is achieved)	5 (Growth inhibition effect is equal to or greater than 90%, or complete withering is achieved)	5 (Growth inhibition effect is equal to or greater than 90%, or complete withering is achieved)	–
COc1ccc(CS(=O)(=O)c2ncc(Cl)s2)cc1Cl [Compound 1C-89]	3 (Growth inhibition effect equal to or greater than 50%, and less than 70%)	5 (Growth inhibition effect is equal to or greater than 90%, or complete withering is achieved)	5 (Growth inhibition effect is equal to or greater than 90%, or complete withering is achieved)	5 (Growth inhibition effect is equal to or greater than 90%, or complete withering is achieved)	–
COc1cc(Cl)ccc1CS(=O)(=O)c1ncc(Cl)s1 [Compound 1C-4]	5 (Growth inhibition effect is equal to or greater than 90%, or complete withering is achieved)	5 (Growth inhibition effect is equal to or greater than 90%, or complete withering is achieved)	5 (Growth inhibition effect is equal to or greater than 90%, or complete withering is achieved)	5 (Growth inhibition effect is equal to or greater than 90%, or complete withering is achieved)	–
